What all share (assay type): cell-based
In assay [1] the test system is Rap1. In words: Rap1 activation affinity assay (GST-RalGDS pull-down), NIH3T3 cells. As for the experimental part: NIH3T3 cells (American Type Culture Collection, ATCC, Manassas, Va.) were cultured in Dulbecco-Modified Eagle Medium (DMEM) plus 10% fetal calf serum, penicillin/streptomycin, and L-glutamine at 37° C. in 5% CO2. Cells were maintained in serum-free DMEM for 16 hours at 37° C. in 5% CO2 prior to treatment. NIH3T3 cells were trasfected with Flag-Rap1 (see Vossler et al., Cell, 89:73-82, 1997) or stimulated with Forskolin (10 μM, Cal Biochem, Riverside, Calif.) for five minutes. Forskolin treated cells received either a pretreatment or post-treatment with 10 μM N-[2(Bromocimamylamino) ethyl]-5-isoquinolinesulfonamide (H89) (Cal Biochem, Riverside, Calif.) for 20 minutes.
Cells were co-transfected with Flag-Rap1 at seventy to eighty percent confluency with the cDNA using a Lipofectamine 2000 kit (Gibco BRL, Rockville, Md.) according to the manufacturer's instructions. The control vector, pcDNA3 (Invitrogen Corp.), was included in each set of transfections to assure that each plate received the same amount of DNA. Following transfection, cells were allowed to recover in serum containing media for 24 hours. Cells were then starved overnight in serum-free DMEM before treatment and lysis.
After treatment, cells were lysed in ice-cold lysis buffer (50 mM Tris-HCL (pH 8.0), 10% glycerol, 1% nonidet P40, 200 mM NaCl, 2.5 mM MgCl2, 1 mM phenylmethylsulfonyl fluoride, 1 μM leupeptin, 10 μln soybean trypsin inhibitor, 10 mM NaF, 0.1 μM aprotinin, and 1 mM NaVO4). Nuclei and cytoskeleton were removed from equivalent amounts of lysate by centrifugation at 5,000 rpm for five minutes. The supernatant was centrifuged at 100,000×g for one hour at 4° C. and, the resultant membrane was resuspended in cold lysis buffer. Aliquots of the membrane fraction were analyzed for the presence of C3G by Western blotting. The cytosolic or membrane fractions of treated or untreated cells were mixed with equivalent amounts of lysates from untreated Flag-Rap1 transfected cells. The mixture was incubated at 37° C. for five minutes and equal amounts of lysate were analyzed using the Rap1 activation assay to monitor Flag-Rap 1 activation by Gst-RalGDS.
The Rap1 activation affinity assay was performed as follows. A GST fusion protein of the Rap1-binding domain of RalGDS (GST-RalGDS, Dr. Bos, Utrecht University, The Netherlands) was expressed in E. coli following induction by isopropyl-1thio-β-D-galactopyranoside. Active Rap1 was isolated as previously described (Franke et al., EMBO J. 16:252-9, 1997). Briefly, equivalent amounts of supernatants (500 μg) were incubated with GST-RalGDS-Rap1 binding domain coupled to glutathione beads. Following a one hour incubation at 4° C., beads were pelleted and rinsed threes times with ice-cold lysis buffer. […] Proteins were detected using enhanced chemiluminescence.

Assay [2] has as its system Rap1. In words: Rap1 activation affinity assay, Hek293 cells. The note with it: 10 μM; for Effect of inhibitor on isoproterenol's activation of endogenous Rap1: 20 minutes. How it is done:
The Rap1 activation affinity assay was performed as follows. A GST fusion protein of the Rap1-binding domain of RalGDS (GST-RalGDS, Dr. Bos, Utrecht University, The Netherlands) was expressed in E. coli following induction by isopropyl-1thio-β-D-galactopyranoside. Active Rap1 was isolated as previously described (Franke et al., EMBO J. 16:252-9, 1997). Briefly, equivalent amounts of supernatants (500 μg) were incubated with GST-RalGDS-Rap1 binding domain coupled to glutathione beads. Following a one hour incubation at 4° C., beads were pelleted and rinsed threes times with ice-cold lysis buffer. The protein was eluted from the beads using 2× Laemmli buffer and applied to a 12% SDS-polyacrylamide gel. Proteins were tansferred to PVDF membrane (Millipore Corporation, Bedford, Mass.), blocked in 5% milk for one hour and, probed with either α-Rap1/Krev-1 (Santa Cruz Biotechnology Inc., Santa Cruz, Calif.) or Flag antibody (Sigma, St Louis, Mo.) overnight at 4° C., followed by an HRP-conjugated anti-rabbit secondary antibody (or anti-mouse secondary for anti-Flag western blots). Proteins were detected using enhanced chemiluminescence.
Hek293 cells (ATCC) were cultured in DMEM plus 10% fetal calf serum, penicillin/streptomycin, and L-glutamine at 37° C. in 5% CO2. Cells were maintained in serum-free DMEM for 16 hours at 37° C. in 5% CO2 prior to treatment with H89 (10 μM) or PP2 (10 μM) for 20 minutes, and then treated with isoproterenol (10 μM) for 5 minutes. Cell lysates were prepared, and a Rap1 activation affinity assay performed as described in Example 1. […] This activation required Src family kinases (SFKs) as it was blocked by the inhibitor PP2.
The mechanism of ERK activation by isoproterenol in Hek293 cells was determined as follows. Hek293 cells were transfected with Flag-Rap1 along with pcDNA3, SrcS17A, SrcS17D, or SrcWT as described above. […]

In assay [3] the test system is complex including C3G, Crk-L, and Cb1. Put plainly: Cb1/Crk-L/C3G complex formation (myc-Cb1 immunoprecipitation), NIH3T3 cells. An excerpt:
To determine if Cb1 forms part of a complex, cells were stimulated with Forskolin in the presence or absence of H89 or PP2 and lysates generated as described above. Myc-Cb1 was immunoprecipitated from treated cells and the pellets analyzed by Western blot using antibodies specific for Crk-L and C3G. Total cell lysates were examined for myc-Cb1 by Western blot using a myc antibody (Santa Cruz Biotechnology Inc.). NIH3T3 cells express Crk-L, an isoform of Crk that is constitutively bound to C3G.

For the compound `O=S(=O)(NCCNC/C=C/c1ccc(Br)cc1)c1cccc2cnccc12` [H89, N-[2(Bromocimamylamino)ethyl]-5-isoquinolinesulfonamide], the “Effect on Forskolin activation of Flag-Rap1 in trans” value with Rap1 [1] (added ten minutes after Forskolin) is reported as “still able to activate Flag-Rap1 in trans”; with Rap1 [1] (pretreatment, 10 μM, 20 minutes), “blocked”. Besides, the “Effect of inhibitor on isoproterenol's activation of endogenous Rap1” value in the assay with Rap1 [2] is recorded as “PKA-dependent”. The “Effect on Forskolin-stimulated C3G/Crk-L/Cb1 complex formation” value in assay [3] is recorded as “blocked”.
Regarding `CC(C)(C)n1nc(-c2ccc(Cl)cc2)c2c(N)ncnc21` [PP2, 4-amino-5-(4-chlorophenyl)-7-(t-butyl)pyazolo[3,4-d]pyrimidine], the “Effect of inhibitor on isoproterenol's activation of endogenous Rap1” value in the assay on Rap1 [2] is on record as “blocked”. Besides, the “Effect on Forskolin-stimulated C3G/Crk-L/Cb1 complex formation” value in assay [3] was “blocked”.
Consider `CC(C)NCC(O)c1ccc(O)c(O)c1` (centres unmarked) [isoproterenol], for which the “Activation of endogenous Rap1” value with Rap1 [1] (NIH3T3 cells, 10 μM, five minutes) is “activated Rap1”; in the assay on Rap1 [2] (5 minutes), “activated endogenous Rap1”.

The values are drawn from patent US20050037446A1, “Agents that recognize src when phosphorylated at serine 17” (priority 2001, published 2005).
